The values below are quoted from earlier work in patent US12539267B2, “Product for dyeing keratinous material, containing aminosilicone, a chromophoric compound and organic carbonic acid ester” (Henkel AG & Co. KGaA, priority 2019, dated 2026).

Molecules are shown by their SMILES.

For this data set the following is noted: 25° C.

Consider `O=S(=O)([O-])c1ccc(N=Nc2c(O)ccc3ccccc23)cc1.[Na+]` [Acid Orange 7, sodium salt of 4-[(2-hydroxy-1-naphthyl)azo]benzene sulphonate], for which the solubility in water entry was “more than 7 g/L”. Consider `Nc1cc(S(=O)(=O)[O-])cc2cc(S(=O)(=O)[O-])c(N=Nc3ccccc3)c(O)c12.[Na+].[Na+]` [Acid Red 33, diantrium salt of 5-amino-4-hydroxy-3-(phenylazo)-naphthalene-2,7-disulphonate], for which the solubility in water is recorded as 2.5 g/L. Regarding `O=C([O-])c1c(Cl)c(Cl)c(Cl)c(Cl)c1-c1c2c(Br)cc(=O)c(Br)c-2oc2c(Br)c(O)cc(Br)c12.O=C([O-])c1c(Cl)c(Cl)c(Cl)c(Cl)c1-c1c2c(Br)cc(=O)c(Br)c-2oc2c(Br)c(O)cc(Br)c12.[Na+].[Na+]` [Acid Red 92, disodium salt of 3,4,5,6-tetrachloro-2-(1,4,5,8-tetrabromo-6-hydroxy-3-oxoxanthen-9-yl)benzoic acid], the solubility in water entry was “greater than 10 g/L”. In the case of `O=C([O-])C1=NN(c2ccc(S(=O)(=O)[O-])cc2)C(=O)C1N=Nc1ccc(S(=O)(=O)[O-])cc1.[Na+].[Na+].[Na+]` (stereo not shown) [Acid Yellow 23, trisodium salt of 4,5-dihydro-5-oxo-1-(4-sulfophenyl)-4-((4-sulfophenyl)azo)-1H-pyrazole-3-carboxylic acid], the “solubility in water (in words)” value was “highly soluble in water”.
